The results in this text go back to ChEMBL document CHEMBL5331124, “Degradation of Hexokinase 2 Blocks Glycolysis and Induces GSDME-Dependent Pyroptosis to Amplify Immunogenic Cell Death for Breast Cancer Therapy” (J Med Chem, 2023).

Series [1] is described as follows: Cytotoxicity against human HUVEC-T1 cell assessed as inhibition of cell growth at 1 to 100 uM incubated for 48 hrs by CCK-8 assay. The class given is toxicity, cell-based. To be noted: dose 1-100 µM. For orientation: Formazan colour is commonly taken as a measure of viable cells.
The target of series [2] is T1, Hexokinase-2 (Mus musculus) (UniProt O08528).
T1 sequence (whole entry): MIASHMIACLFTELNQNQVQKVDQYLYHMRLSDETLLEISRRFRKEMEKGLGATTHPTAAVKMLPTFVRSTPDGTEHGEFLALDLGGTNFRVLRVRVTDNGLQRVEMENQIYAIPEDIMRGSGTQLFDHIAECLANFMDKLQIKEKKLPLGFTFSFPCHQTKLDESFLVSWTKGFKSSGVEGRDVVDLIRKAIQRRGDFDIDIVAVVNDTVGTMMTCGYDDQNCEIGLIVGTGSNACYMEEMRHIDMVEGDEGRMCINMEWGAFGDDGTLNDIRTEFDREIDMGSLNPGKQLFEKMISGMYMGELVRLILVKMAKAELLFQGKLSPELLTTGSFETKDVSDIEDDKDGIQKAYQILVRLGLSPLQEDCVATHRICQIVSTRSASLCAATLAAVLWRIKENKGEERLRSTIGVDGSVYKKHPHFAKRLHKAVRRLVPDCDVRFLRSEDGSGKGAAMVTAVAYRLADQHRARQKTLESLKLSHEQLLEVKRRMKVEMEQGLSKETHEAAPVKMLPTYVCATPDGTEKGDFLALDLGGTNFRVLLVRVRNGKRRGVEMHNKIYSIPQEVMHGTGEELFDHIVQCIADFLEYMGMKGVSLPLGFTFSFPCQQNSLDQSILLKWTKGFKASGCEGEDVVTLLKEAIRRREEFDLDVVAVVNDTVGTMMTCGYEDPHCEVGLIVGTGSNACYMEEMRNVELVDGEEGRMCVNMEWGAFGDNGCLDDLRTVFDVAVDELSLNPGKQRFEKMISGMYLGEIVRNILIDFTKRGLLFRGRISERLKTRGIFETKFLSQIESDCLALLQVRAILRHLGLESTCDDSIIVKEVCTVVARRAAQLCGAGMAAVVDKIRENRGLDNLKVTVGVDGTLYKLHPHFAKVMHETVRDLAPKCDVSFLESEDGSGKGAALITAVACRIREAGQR
The series can be described thus: Induction of HK2 degradation in mouse 4T1 cells at 20 uM measured upto 18 hrs by Western blot analysis. It counts as cell-based.

Series [3] addresses T1, Hexokinase-2 (Mus musculus). The series can be described thus: (§1) Induction of HK2 degradation in mouse 4T1 cells measured for 36 hrs. It counts as cell-based.
The target in a further series is T2, Hexokinase-2 (Mus musculus, UniProt O08528).
T2 sequence (O08528 whole entry): T1 sequence (whole entry)
The description is as §1. The class given is cell-based.

Series [4] has as its system 4T1. The series is described as follows: Induction of mitochondrial damage in mouse 4T1 cells assessed as reduction in LDH level at 20 uM measured for 36 hrs. It counts as functional, cell-based.
Series [5] concerns 4T1. The series can be described thus: Induction of pyroptosis in mouse 4T1 cells assessed as dead cells at 20 uM incubated for 36 hrs by annexin V-FITC staining based flow cytometry analysis (Rvb =17.6 %). It counts as functional. In general terms: Flow cytometry measures light scatter and fluorescence of single cells or particles in a stream.
The subject of series [6] is MDA-MB-231. The series is described as follows: Induction of pyroptosis in human MDA-MB-231 cells assessed as decrease in full length GSDME level at 20 uM incubated for 36 hrs by Western blot analysis. It counts as functional, cell-based. (Immunoblotting shows a protein as a band on a membrane.)
Series [7] deals with MDA-MB-231. The series is described as follows: Induction of pyroptosis in human MDA-MB-231 cells assessed as increase in cleaved caspase-3 level level at 20 uM incubated for 36 hrs by Western blot analysis. It counts as functional, cell-based.
The test system of series [8] is MDA-MB-231. The series can be described thus: Induction of pyroptosis in human MDA-MB-231 cells assessed as increase in N-terminal GSDME level at 20 uM incubated for 36 hrs by Western blot analysis. The class given is functional, cell-based.
Series [9] has as its system 4T1. The series is described as follows: Upregulation of PD-L1 expression in mouse 4T1 cells cytoplasm at 20 uM measured for 36 hrs. The class given is functional, subcellular.
The nature of series [10]: Toxicity in BALB/c mouse implanted with mouse 4T1 cells assessed as pathological changes in lung at 50 mg/kg, ip measured after 25 days by Hematoxylin -eosin staining based analysis. The class given is organism-based. Particulars: in vivo, 600 h, time 25 day.
Series [11] is described as follows: Toxicity in BALB/c mouse implanted with mouse 4T1 cells assessed as change in corpuscular hemoglobin concentration at 50 mg/kg, ip measured after 25 days by routine blood test. The class given is organism-based. To be noted: in vivo, 600 h, time 25 day.
The test system of series [12] is 4T1. The series is described as follows: Antitumor immunity against mouse 4T1 cells implanted in BALB/c mouse model assessed as increase in HMGB1 release in tumor. It counts as functional, cell-based.
The test system of series [13] is 4T1. The series can be described thus: Antitumor immunity activity against mouse 4T1 cells implanted in BALB/c mouse assessed as increase in proportion of cytotoxic CD8 positive T cells in tumor by flow cytometry analysis. It counts as functional, cell-based.
The nature of series [14]: Toxicity in BALB/c nude mouse xenografted with human MDA-MB-231 cells assessed as effect on mean corpuscular hemoglobin at 50 mg/kg, ip measured after 30 days by routine blood test. It counts as organism-based. To be noted: in vivo, 720 h, time 30 day.
Series [15] relates to 4T1. The series can be described thus: Antitumor activity against mouse 4T1 cells implanted in BALB/c mouse assessed as reduction in tumor volume at 50 mg/kg, ip measured after 23 days in presence of cisplatin. The class given is functional, organism-based. To be noted: time 23.0 day.
Series [16] can be described thus: Toxicity in BALB/c mouse implanted with mouse 4T1 cells assessed as colon damage at 50 mg/kg, ip measured after 25 days in presence of cisplatin by H and E staining based analysis. The class given is organism-based. To be noted: in vivo, 600 h, time 25 day.
Series [17] is described as follows: Toxicity in BALB/c mouse implanted with mouse 4T1 cells assessed as effect on mean corpuscular hemoglobin concentration at 50 mg/kg, ip measured after 25 days in presence of cisplatin by routine blood test. It counts as organism-based. Particulars: in vivo, 600 h, time 25 day.
Series [18] can be described thus: Toxicity in BALB/c mouse implanted with mouse 4T1 cells assessed as effect on red blood cells at 50 mg/kg, ip measured after 25 days in presence of cisplatin by routine blood test. The class given is organism-based. Particulars: in vivo, 600 h, time 25 day.
A short description of series [19]: Toxicity in BALB/c mouse implanted with mouse 4T1 cells assessed as pathological changes in spleen at 50 mg/kg, ip measured after 25 days in presence of cisplatin by Hematoxylin -eosin staining based analysis. Particulars: in vivo, 600 h, time 25 day. It counts as organism-based.

Active and inactive are the calls of the source. The rule behind the calls is not given here.

As for `O=C1CCC(N2C(=O)c3cccc(NCCCCNC(=O)c4nn(Cc5ccc(Cl)cc5Cl)c5ccccc45)c3C2=O)C(=O)N1` (stereo not given), the Activity entry was “Toxic” in series [1]; “Dose-Dependent Effect” in [3]; 9.44% with 4T1 [5]; “Non-Toxic” in [10]; “Non-Toxic” in [11]; “Non-Toxic” in series [14]. Also, the Activity entry in series [16], in [17], in [18] and in series [19] was “Non-Toxic” throughout. The outcome (in series [2]; in the series with 4T1 [4]; with MDA-MB-231 [6]; with MDA-MB-231 [7]; in the series on MDA-MB-231 [8]; with 4T1 [9]) was Active. Besides, the result in the series on 4T1 [12], in the series on 4T1 [13] and in the series with 4T1 [15] was Active. Also, the DC50 (commonly the concentration at which degradation of the target reaches its halfway point) on Hexokinase-2 came out at 2560 nM.
